From PMC11277489, “Novel Piperazine Derivatives of Vindoline as Anticancer Agents” (International Journal of Molecular Sciences, 2024)
Like-named read-outs stand apart in the source and are kept apart here.

Tests used:
Type in all cases: cell-based
RXF 393 = test: NCI60 five-dose screen, Renal Cancer; conditions: Homo sapiens, RXF 393, Renal Cancer
RPMI-8226 = test: NCI60 five-dose screen, Leukemia; conditions: Homo sapiens; RPMI-8226, Leukemia; five-dose screen; read-out: GI50
COLO 205 = test: NCI60 five-dose screen, Colon Cancer; conditions: Homo sapiens; COLO 205, Colon Cancer; five-dose screen; read-out: GI50
UACC-62 = test: NCI60 five-dose screen, Melanoma; conditions: Homo sapiens; UACC-62, Melanoma; five-dose screen; read-out: GI50
SF-295 = test: NCI60 five-dose screen, CNS Cancer; conditions: Homo sapiens; SF-295, CNS Cancer; five-dose screen; read-out: GI50
[1] = system: 60 human tumor cell lines (NCI60); test: NCI60 five-dose screen, whole panel and sub-panel means; conditions: read-out: GI50 Mean
K-562 = test: NCI60 five-dose screen, Leukemia; conditions: Homo sapiens, K562; K-562, Leukemia; five-dose screen; read-out: GI50
HT29 = test: NCI60 five-dose screen, Colon Cancer; conditions: Homo sapiens, HT-29; HT29, Colon Cancer; five-dose screen; read-out: GI50
SK-OV-3 = test: NCI60 five-dose screen, Ovarian Cancer; conditions: Homo sapiens; SK-OV-3, Ovarian Cancer; five-dose screen; read-out: GI50
HCT-15 = test: NCI60 five-dose screen, Colon Cancer; conditions: Homo sapiens; HCT-15, Colon Cancer; five-dose screen; read-out: GI50
SK-MEL-5 = test: NCI60 five-dose screen, Melanoma; conditions: Homo sapiens; SK-MEL-5, Melanoma; five-dose screen; read-out: GI50
OVCAR-8 = test: NCI60 five-dose screen, Ovarian Cancer; conditions: Homo sapiens; OVCAR-8, Ovarian Cancer; five-dose screen; read-out: GI50
NCI-H23 = test: NCI60 five-dose screen, Non-small Cell Lung Cancer; conditions: Homo sapiens; NCI-H23, Non-small Cell Lung Cancer; five-dose screen; read-out: GI50
MDA-MB-435 = test: NCI60 five-dose screen, Melanoma; conditions: Homo sapiens; MDA-MB-435, Melanoma; five-dose screen; read-out: GI50
HOP-62 = test: NCI60 five-dose screen, Non-small Cell Lung Cancer; conditions: Homo sapiens; HOP-62, Non-small Cell Lung Cancer; five-dose screen; read-out: GI50
HOP-92 = test: NCI60 five-dose screen, Non-small Cell Lung Cancer; conditions: Homo sapiens; HOP-92, Non-small Cell Lung Cancer; five-dose screen; read-out: GI50
MDA-MB-468 = test: NCI60 five-dose screen, Breast Cancer; conditions: Homo sapiens; MDA-MB-468, Breast Cancer; five-dose screen; read-out: GI50
NCI-H226 = test: NCI60 five-dose screen, Non-small Cell Lung Cancer; conditions: Homo sapiens; NCI-H226, Non-small Cell Lung Cancer; five-dose screen; read-out: GI50
BT-549 = test: NCI60 five-dose screen, Breast Cancer; conditions: Homo sapiens; BT-549, Breast Cancer; five-dose screen; read-out: GI50
CAKI-1 = test: NCI60 five-dose screen, Renal Cancer; conditions: Homo sapiens; CAKI-1, Renal Cancer; five-dose screen; read-out: GI50
DU-145 = test: NCI60 five-dose screen, Prostate Cancer; conditions: Homo sapiens; DU-145, Prostate Cancer; five-dose screen; read-out: GI50
EKVX = test: NCI60 five-dose screen, Non-small Cell Lung Cancer; conditions: Homo sapiens, Non-small Cell Lung Cancer, five-dose screen, read-out: GI50
T-47D = test: NCI60 five-dose screen, Breast Cancer; conditions: Homo sapiens, T47D; T-47D, Breast Cancer; five-dose screen; read-out: GI50
SK-MEL-28 = test: NCI60 five-dose screen, Melanoma; conditions: Homo sapiens; SK-MEL-28, Melanoma; five-dose screen; read-out: GI50
HCT-116 = test: NCI60 five-dose screen, Colon Cancer; conditions: Homo sapiens; HCT-116, Colon Cancer; five-dose screen; read-out: GI50
U251 = test: NCI60 five-dose screen, CNS Cancer; conditions: Homo sapiens, U-251; U251, CNS Cancer; five-dose screen; read-out: GI50
HL-60(TB) = test: NCI60 five-dose screen, Leukemia; conditions: Homo sapiens; HL-60(TB), Leukemia; five-dose screen; read-out: GI50
M14 = test: NCI60 five-dose screen, Melanoma; conditions: Homo sapiens; M14, Melanoma; five-dose screen; read-out: GI50
LOX IMVI = test: NCI60 five-dose screen, Melanoma; conditions: Homo sapiens, Melanoma, five-dose screen, read-out: GI50
SF-268 = test: NCI60 five-dose screen, CNS Cancer; conditions: Homo sapiens; SF-268, CNS Cancer; five-dose screen; read-out: GI50
SK-MEL-2 = test: NCI60 five-dose screen, Melanoma; conditions: Homo sapiens; SK-MEL-2, Melanoma; five-dose screen; read-out: GI50
A498 = test: NCI60 five-dose screen, Renal Cancer; conditions: Homo sapiens; A498, Renal Cancer; five-dose screen; read-out: GI50
SF-539 = test: NCI60 five-dose screen, CNS Cancer; conditions: Homo sapiens; SF-539, CNS Cancer; five-dose screen; read-out: GI50
SNB-19 = test: NCI60 five-dose screen, CNS Cancer; conditions: Homo sapiens; SNB-19, CNS Cancer; five-dose screen; read-out: GI50
[2] = Homo sapiens, 60 cell, mean over all 60 cell lines
[3] = Homo sapiens, mean over Breast Cancer panel
[4] = Homo sapiens, mean over CNS Cancer panel
[5] = Homo sapiens, mean over Colon Cancer panel
[6] = Homo sapiens, mean over Leukemia panel
[7] = Homo sapiens, mean over Melanoma panel
[8] = Homo sapiens, mean over Non-small Cell Lung Cancer panel
[9] = Homo sapiens, mean over Ovarian Cancer panel
[10] = Homo sapiens, mean over Prostate Cancer panel
[11] = Homo sapiens, mean over Renal Cancer panel

CC[C@]12C=CCN3CC[C@@]4(c5ccc(OC)cc5N(C)[C@H]4[C@@](O)(C(=O)OC)[C@@H]1OC(=O)CCC(=O)N1CCN(Cc4ccc(C(F)(F)F)cc4)CC1)[C@@H]32 [Compound 29]
GI50 (RXF 393): 4.47 µM
GI50 (RPMI-8226): 6.92 µM
GI50 (COLO 205): 7.08 µM
GI50 (UACC-62): 11 µM
GI50 (SF-295): 9.33 µM
GI50 [1, 2]: 9.76 µM
GI50 [1, 3]: 8.72 µM
GI50 [1, 4]: 11.1 µM
GI50 [1, 5]: 9.71 µM
GI50 [1, 6]: 9.07 µM
GI50 [1, 7]: 9.42 µM
GI50 [1, 8]: 10.4 µM
GI50 [1, 9]: 10.6 µM
GI50 [1, 10]: 7.3 µM
GI50 [1, 11]: 9.9 µM
GI50 (K-562): 3.8 µM
GI50 (HT29): 6.76 µM
GI50 (SK-OV-3): 12.6 µM
GI50 (HCT-15): 10.2 µM
GI50 (SK-MEL-5): 3.89 µM
GI50 (OVCAR-8): 12 µM
GI50 (NCI-H23): 12 µM
GI50 (MDA-MB-435): 10.5 µM
GI50 (HOP-62): 14.1 µM
GI50 (HOP-92): 4.27 µM
GI50 (MDA-MB-468): 1.95 µM
GI50 (NCI-H226): 9.77 µM
GI50 (BT-549): 15.1 µM
GI50 (CAKI-1): 8.71 µM
GI50 (DU-145): 11.2 µM
GI50 (EKVX): 7.59 µM
GI50 (T-47D): 5.25 µM
GI50 (SK-MEL-28): 11.8 µM
GI50 (HCT-116): 7.76 µM
GI50 (U251): 11.2 µM
GI50 (HL-60(TB)): 12.9 µM
GI50 (M14): 8.13 µM
GI50 (LOX IMVI): 13.8 µM
GI50 (SF-268): 5.75 µM
GI50 (SK-MEL-2): 2.82 µM
GI50 (A498): 12.3 µM
GI50 (SF-539): 12.9 µM
GI50 (SNB-19): 11.8 µM

CC[C@]12C=CCN3CC[C@@]4(c5ccc(OC)cc5N(C)[C@H]4[C@@](O)(C(=O)OC)[C@@H]1OC(=O)CCC(=O)N1CCN(C(c4ccc(F)cc4)c4ccc(F)cc4)CC1)[C@@H]32 [Compound 31]
GI50 (RPMI-8226): 1.42 µM
GI50 (COLO 205): 2.82 µM
GI50 (UACC-62): 1.92 µM
GI50 (SF-295): 2.11 µM
GI50 [1, 2]: < 4 µM
GI50 [1, 3]: 2 µM
GI50 [1, 4]: 2.6 µM
GI50 [1, 5]: 2.23 µM
GI50 [1, 6]: 1.89 µM
GI50 [1, 7]: 2.4 µM
GI50 [1, 8]: 2.59 µM
GI50 [1, 9]: 2.15 µM
GI50 [1, 10]: 2.27 µM
GI50 [1, 11]: 2.33 µM
GI50 ([1]; mean over all 60 cell lines): 2.29 µM
GI50 (K-562): 2.92 µM
GI50 (HT29): 1.76 µM
GI50 (SK-OV-3): 2.02 µM
GI50 (HCT-15): 2.45 µM
GI50 (SK-MEL-5): 1.84 µM
GI50 (OVCAR-8): 3.18 µM
GI50 (NCI-H23): 2.7 µM
GI50 (MDA-MB-435): 2.7 µM
GI50 (HOP-62): 2.55 µM
GI50 (HOP-92): 1.99 µM
GI50 (MDA-MB-468): 1.2 µM
GI50 (NCI-H226): 1.84 µM
GI50 (BT-549): 1.81 µM
GI50 (CAKI-1): 3.07 µM
GI50 (DU-145): 2.67 µM
GI50 (T-47D): 2.47 µM
GI50 (SK-MEL-28): 3.26 µM
GI50 (HCT-116): 2.72 µM
GI50 (U251): 2.78 µM
GI50 (HL-60(TB)): 1.93 µM
GI50 (M14): 3.55 µM
GI50 (LOX IMVI): 1.8 µM
GI50 (SF-268): 2.98 µM
GI50 (SK-MEL-2): 1.62 µM
GI50 (A498): 2.38 µM
GI50 (SF-539): 2.02 µM
GI50 (SNB-19): 3.58 µM
